Reference: patent US5194371A, “Production of pradimicin antibiotics” (Bristol-Myers Squibb Company, priority 1991, dated 1993)

Legend:
Candida albicans A9540 = experiment: In vivo efficacy against C. albicans A9540 systemic infection in mice; set-up: species or system male ICR mice infected with Candida albicans; details: A9540, iv, 504 h, i.v., single dose immediately after challenge, survival on day 21, read-out: PD50 (median protective dose)
Procedure: The in vivo efficacy of BMY-28960 was evaluated against Candida albicans A9540 systemic infection in male ICR mice (20-24 g body weight). Five mice are used for each dose level. Mice were challenged intravenously with 10 times the median lethal dose of the pathogen suspended in saline and BMY-28960 was intravenously administered once immediately after the challenge. The median protective dose (PD50) was calculated from survival rates recorded on day 21.

[1] = Tolerability following intravenous administration in ICR mice; format: in vivo; details: i.v., up to 600 mg/kg
strain AB 1236 = experiment: Antibiotic susceptibility of strain AB 1236 (antibiotic disks); format: cell-based, Actinomadura sp. AB 1236; details: 37° C., 4 days
Procedure: Antibiotic susceptibility of strain AB 1236 was tested using antibiotic disks (Tridisk, Eiken Chemical Co., Ltd.). The disks were placed onto the surface of yeast-glucose-malt agar (yeast extract 0.1%, glucose 1%, malt extract 0.1%, CaCl2.2H2 O 0.05% and agar 1.5%) which had been seeded by strain AB 1236 (4% inoculum), and the plates were then incubated at 37° C. for 4 days. Strain AB 1236 was resistant to 50 μg of fosfomycin and 300 U of polymixin B, and susceptible to 20 U of ampicillin, 1 μg of clavulanic acid, 2 μg of ticarcillin, 10 μg of cephalexin, 30 μg of tetracycline, 10 μg of chloramphenicol, 0.5 μg of erythromycin, 2 μg of josamycin, 2 μg of lincomycin, 5 μg of kanamycin, 5 μg of gentamicin, 5 μg of tobramycin, 2 μg of nalidixic acid, 2 μg of norfloxacin and 50 U of colistin.

C[C@@H]1[C@H](O)[C@@H](C)/C=C/C=C/C=C/C=C/C=C/C=C/C=C/[C@H](O[C@@H]2O[C@H](C)[C@@H](O)[C@H](N)[C@@H]2O)C[C@@H]2O[C@](O)(C[C@@H](O)C[C@@H](O)[C@H](O)CC[C@@H](O)C[C@@H](O)CC(=O)O[C@H]1C)C[C@H](O)[C@H]2C(=O)O [Amphotericin B]
ED50 (Candida albicans A9540): 0.31 mg/kg

COc1cc(O)c2c(c1)C(=O)c1c(cc3c(c1O)-c1c(cc(C)c(C(=O)N[C@H](CO)C(=O)O)c1O)[C@H](O[C@@H]1O[C@H](C)[C@H](O)[C@H](O[C@@H]4OC[C@@H](O)[C@H](O)[C@H]4O)[C@H]1O)[C@H]3O)C2=O [BMY-28960, 4'-deamino-4'-axial-hydroxypradimicin FA-2]
Lethality and apparent side effects [1]: neither lethality nor apparent side effects were noted
Solubility in solvent (Solubility in solvent; Dimethyl sulfoxide, N,N-dimethylformamide and alkaline water): Soluble
Solubility in solvent (Solubility in solvent; Ethanol, methanol and acetone): Slightly soluble
Solubility in solvent (Solubility in solvent; Ethyl acetate, benzene, chloroform, acidic water, etc.): Isoluble
ED50 (Candida albicans A9540): 6.7 mg/kg

OC(Cn1cncn1)(Cn1cncn1)c1ccc(F)cc1F [Fluconazole]
ED50 (Candida albicans A9540): > 50 mg/kg

CN[C@@H]1[C@H](O[C@@H]2OC[C@@H](O)[C@H](O)[C@H]2O)[C@@H](O)[C@H](O[C@H]2c3cc(C)c(C(=O)N[C@H](C)C(=O)O)c(O)c3-c3c(cc4c(c3O)C(=O)c3cc(OC)cc(O)c3C4=O)[C@@H]2O)O[C@@H]1C [Pradimicin A]
ED50 (Candida albicans A9540): 10 mg/kg

CC1(C)S[C@@H]2[C@H](NC(=O)[C@H](N)c3ccccc3)C(=O)N2[C@H]1C(=O)O [ampicillin]
Antibiotic susceptibility of strain AB 1236 (strain AB 1236; disk 20 U): susceptible

CC1=C(C(=O)O)N2C(=O)[C@@H](NC(=O)[C@H](N)c3ccccc3)[C@H]2SC1 [cephalexin]
Antibiotic susceptibility of strain AB 1236 (strain AB 1236; disk 10 μg): susceptible

O=C(N[C@H](CO)[C@H](O)c1ccc([N+](=O)[O-])cc1)C(Cl)Cl [chloramphenicol]
Antibiotic susceptibility of strain AB 1236 (strain AB 1236; disk 10 μg): susceptible

O=C(O)[C@H]1/C(=C/CO)O[C@@H]2CC(=O)N21 [clavulanic acid]
Antibiotic susceptibility of strain AB 1236 (strain AB 1236; disk 1 μg): susceptible

CC[C@H]1OC(=O)[C@H](C)[C@@H](O[C@H]2C[C@@](C)(OC)[C@@H](O)[C@H](C)O2)[C@H](C)[C@@H](O[C@@H]2O[C@H](C)C[C@H](N(C)C)[C@H]2O)[C@](C)(O)C[C@@H](C)C(=O)[C@H](C)[C@@H](O)[C@]1(C)O [erythromycin]
Antibiotic susceptibility of strain AB 1236 (strain AB 1236; disk 0.5 μg): susceptible

C[C@@H]1O[C@@H]1P(=O)(O)O [fosfomycin]
Antibiotic susceptibility of strain AB 1236 (strain AB 1236; disk 50 μg): resistant

NC[C@H]1O[C@H](O[C@H]2[C@H](O)[C@@H](O[C@H]3O[C@H](CO)[C@@H](O)[C@H](N)[C@H]3O)[C@H](N)C[C@@H]2N)[C@H](O)[C@@H](O)[C@@H]1O [kanamycin]
Antibiotic susceptibility of strain AB 1236 (strain AB 1236; disk 5 μg): susceptible

CCC[C@@H]1C[C@@H](C(=O)N[C@@H]([C@H]2O[C@H](SC)[C@H](O)[C@@H](O)[C@H]2O)[C@@H](C)O)N(C)C1 [lincomycin]
Antibiotic susceptibility of strain AB 1236 (strain AB 1236; disk 2 μg): susceptible

CCn1cc(C(=O)O)c(=O)c2ccc(C)nc21 [nalidixic acid]
Antibiotic susceptibility of strain AB 1236 (strain AB 1236; disk 2 μg): susceptible

CCn1cc(C(=O)O)c(=O)c2cc(F)c(N3CCNCC3)cc21 [norfloxacin]
Antibiotic susceptibility of strain AB 1236 (strain AB 1236; disk 2 μg): susceptible

CN(C)C1C(=O)C(C(N)=O)=C(O)C2(O)C(=O)C3=C(O)c4c(O)cccc4C(C)(O)C3CC12 (stereo not shown) [tetracycline]
Antibiotic susceptibility of strain AB 1236 (strain AB 1236; disk 30 μg): susceptible

CC1(C)S[C@@H]2[C@H](NC(=O)[C@H](C(=O)O)c3ccsc3)C(=O)N2[C@H]1C(=O)O [ticarcillin]
Antibiotic susceptibility of strain AB 1236 (strain AB 1236; disk 2 μg): susceptible

NC[C@H]1O[C@H](O[C@H]2[C@H](O)[C@@H](O[C@H]3O[C@H](CO)[C@@H](O)[C@H](N)[C@H]3O)[C@H](N)C[C@@H]2N)[C@H](N)C[C@@H]1O [tobramycin]
Antibiotic susceptibility of strain AB 1236 (strain AB 1236; disk 5 μg): susceptible

colistin
Antibiotic susceptibility of strain AB 1236 (strain AB 1236; disk 50 U): susceptible

gentamicin
Antibiotic susceptibility of strain AB 1236 (strain AB 1236; disk 5 μg): susceptible

josamycin
Antibiotic susceptibility of strain AB 1236 (strain AB 1236; disk 2 μg): susceptible

polymixin B
Antibiotic susceptibility of strain AB 1236 (strain AB 1236; disk 300 U): resistant
